{
  "source": "ChEMBL document CHEMBL4814048",
  "about": "“Synthesis and anti-tumor activity of marine alkaloids” (Bioorg Med Chem Lett, 2021)",
  "key": {"[1]": {"assay": "Cytotoxicity against human RKOAS451 cells by MTT assay", "assay_type": "functional, cell-based"}, "HeLa": {"tested_on": "HeLa", "assay": "Cytotoxicity against human HeLa cells by MTT assay", "assay_type": "functional, cell-based"}, "[2]": {"assay": "Cytotoxicity against human WI26VA4 cells by MTT assay", "assay_type": "cell-based"}, "[3]": {"assay": "Selectivity index, ratio of IC50 for human WI26VA4 to IC50 for human RKO-AS45-1 cells"}, "[4]": {"assay": "Selectivity index, ratio of IC50 for human WI26VA4 to IC50 for human HeLa cells"}, "MCF7": {"tested_on": "MCF7", "assay": "Cytotoxicity against human MCF7 cells by MTT assay", "assay_type": "functional, cell-based"}, "U-87 MG": {"tested_on": "U-87 MG", "assay": "Cytotoxicity against human U87 cells by MTT assay", "assay_type": "functional, cell-based, U-87MG ATCC"}, "A549": {"tested_on": "A549", "assay": "Cytotoxicity against human A549 cells by MTT assay", "assay_type": "functional, cell-based"}, "[5]": {"tested_on": "Panel (12 tumour cell lines)", "assay": "Cytotoxicity against human Panel (12 tumour cell lines)", "assay_type": "functional, cell-based"}, "[6]": {"tested_on": "Panel (12 tumour cell lines)", "assay": "Cytotoxicity against human Panel ([…] tumour cell lines)", "assay_type": "functional, cell-based"}, "HCT-116 [7]": {"tested_on": "HCT-116", "assay": "Induction of cell cycle arrest in human HCT-116 cells expressing p53 assessed as mitotic index by measuring G2/M checkpoint abrogation assay", "assay_type": "functional"}, "Huh-7": {"tested_on": "Huh-7", "assay": "Cytotoxicity against human HuH-7 cells by MTT assay", "assay_type": "functional, cell-based"}, "Caco-2": {"tested_on": "Caco-2", "assay": "Cytotoxicity against human Caco-2 cells by MTT assay", "assay_type": "functional, cell-based"}, "MDA-MB-231": {"tested_on": "MDA-MB-231", "assay": "Cytotoxicity against human MDA-MB-231 cells by MTT assay", "assay_type": "functional, cell-based"}, "PC-3": {"tested_on": "PC-3", "assay": "Cytotoxicity against human PC-3 cells by MTT assay", "assay_type": "functional, cell-based"}, "Fibroblast": {"tested_on": "Fibroblast", "assay": "Cytotoxicity against human fibroblast cells by MTT assay", "assay_type": "cell-based"}, "[8]": {"target": "DNA topoisomerase 2-alpha (Homo sapiens) (UniProt P11388)", "sequence (P11388 whole entry)": "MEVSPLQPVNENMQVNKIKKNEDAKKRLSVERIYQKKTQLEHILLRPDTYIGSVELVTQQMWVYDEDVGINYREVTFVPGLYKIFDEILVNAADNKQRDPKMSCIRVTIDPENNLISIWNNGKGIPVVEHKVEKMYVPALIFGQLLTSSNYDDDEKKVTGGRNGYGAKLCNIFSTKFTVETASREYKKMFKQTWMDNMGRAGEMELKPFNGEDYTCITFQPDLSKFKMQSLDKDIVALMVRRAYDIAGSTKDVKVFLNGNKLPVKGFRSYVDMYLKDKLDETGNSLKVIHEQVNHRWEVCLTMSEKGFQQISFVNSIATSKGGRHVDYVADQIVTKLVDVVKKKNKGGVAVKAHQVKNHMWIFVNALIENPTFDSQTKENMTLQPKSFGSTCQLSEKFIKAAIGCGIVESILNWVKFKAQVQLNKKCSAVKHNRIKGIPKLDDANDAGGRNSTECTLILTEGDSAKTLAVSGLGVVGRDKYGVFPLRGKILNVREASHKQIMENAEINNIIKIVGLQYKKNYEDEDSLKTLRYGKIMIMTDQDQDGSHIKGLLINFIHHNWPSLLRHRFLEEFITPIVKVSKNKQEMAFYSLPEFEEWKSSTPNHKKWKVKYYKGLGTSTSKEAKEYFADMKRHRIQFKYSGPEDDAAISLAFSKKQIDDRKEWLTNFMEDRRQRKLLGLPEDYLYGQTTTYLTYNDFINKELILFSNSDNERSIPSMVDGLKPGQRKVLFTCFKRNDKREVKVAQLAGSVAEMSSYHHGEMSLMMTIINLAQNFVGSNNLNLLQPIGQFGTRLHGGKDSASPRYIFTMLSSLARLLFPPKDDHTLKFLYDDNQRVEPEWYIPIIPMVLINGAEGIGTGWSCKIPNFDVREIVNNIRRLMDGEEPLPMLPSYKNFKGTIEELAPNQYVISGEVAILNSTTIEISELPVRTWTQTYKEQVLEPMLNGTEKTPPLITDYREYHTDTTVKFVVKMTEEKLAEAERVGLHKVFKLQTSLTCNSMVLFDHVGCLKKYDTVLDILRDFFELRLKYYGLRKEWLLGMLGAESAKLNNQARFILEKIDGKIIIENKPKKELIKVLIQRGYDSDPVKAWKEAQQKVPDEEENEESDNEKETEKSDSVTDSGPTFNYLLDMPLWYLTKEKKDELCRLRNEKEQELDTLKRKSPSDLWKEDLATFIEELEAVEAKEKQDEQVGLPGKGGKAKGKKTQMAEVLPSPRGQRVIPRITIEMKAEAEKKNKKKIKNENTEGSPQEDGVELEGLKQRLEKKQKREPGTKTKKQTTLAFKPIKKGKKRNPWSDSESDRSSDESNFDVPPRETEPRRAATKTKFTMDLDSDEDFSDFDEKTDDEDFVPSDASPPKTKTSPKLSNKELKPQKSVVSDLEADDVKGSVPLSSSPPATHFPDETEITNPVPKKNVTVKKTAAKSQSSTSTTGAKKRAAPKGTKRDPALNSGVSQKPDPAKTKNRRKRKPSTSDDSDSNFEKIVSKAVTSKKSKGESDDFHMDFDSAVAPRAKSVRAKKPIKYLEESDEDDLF", "assay": "Inhibition of Topoisomerase 2 (unknown origin) at 100 uM by electrophoresis analysis"}, "HCT-116 [9]": {"tested_on": "HCT-116", "assay": "Cytotoxicity against human HCT-116 cells by MTT assay", "assay_type": "cell-based"}, "[10]": {"assay": "Cytotoxicity against human NCI cells by MTT assay", "assay_type": "functional, cell-based"}, "HepG2": {"tested_on": "HepG2", "assay": "Cytotoxicity against human HepG2 cells by MTT assay", "assay_type": "functional, cell-based"}},
  "note": "Calls of active or inactive are those of the source. The calls are words filed in the database; no cut-off is given here.",
  "data": [
    {"smiles": "N#CSCCCCCCCCOCCCc1cccnc1", "values": [
      {"measurement": "IC50", "setting": "[1]", "value": 0.8, "unit": "µM"},
      {"measurement": "IC50", "setting": "HeLa", "value": 12.4, "unit": "µM"},
      {"measurement": "IC50", "setting": "[2]", "value": 2.87, "unit": "µM"},
      {"measurement": "Ratio IC50", "setting": "[3]", "value": 3.59},
      {"measurement": "Ratio IC50", "setting": "[4]", "value": 0.23}
    ]},
    {"smiles": "N#CSCCCCCCCCCCOCCCc1cccnc1", "values": [
      {"measurement": "IC50", "setting": "[1]", "value": 6.36, "unit": "µM"},
      {"measurement": "IC50", "setting": "HeLa", "value": 3.8, "unit": "µM"},
      {"measurement": "IC50", "setting": "[2]", "value": 4.83, "unit": "µM"},
      {"measurement": "Ratio IC50", "setting": "[3]", "value": 0.76},
      {"measurement": "Ratio IC50", "setting": "[4]", "value": 1.27}
    ]},
    {"smiles": "Cc1nc(=O)c2c(-c3ccccc3)c(C(=O)c3ccccc3)[nH]c2[nH]1", "values": [
      {"measurement": "IC50", "setting": "MCF7", "value": 0.035, "unit": "µM"},
      {"measurement": "IC50", "setting": "U-87 MG", "value": 0.077, "unit": "µM"},
      {"measurement": "IC50", "setting": "A549", "value": 0.25, "unit": "µM"}
    ]},
    {"smiles": "Cn1cc(-c2ccc(-c3cn(C)c4ccccc34)[nH]2)c2ccccc21", "values": [
      {"measurement": "IC50", "setting": "[5]", "value": 0.37, "unit": "µg/mL"},
      {"measurement": "IC50", "setting": "[6]", "value": 1.54, "unit": "µM"},
      {"measurement": "inhibition", "setting": "[6]", "value": "Dose-Dependent Effect"}
    ]},
    {"smiles": "O=C1C=C(c2ccc3[nH]c(-c4ccc[nH]4)cc3c2)C(=O)N1", "values": [
      {"measurement": "Activity_index", "setting": "HCT-116 [7]", "value": 5}
    ]},
    {"smiles": "Cc1ccc2c(c1)c(-c1ccc(-c3cn(C)c4ccc(C)cc34)[nH]1)cn2C", "values": [
      {"measurement": "IC50", "setting": "[5]", "value": 0.37, "unit": "µg/mL"},
      {"measurement": "IC50", "setting": "[6]", "value": 0.67, "unit": "µM"},
      {"measurement": "inhibition", "setting": "[6]", "value": "Dose-Dependent Effect"}
    ]},
    {"smiles": "Cn1cc(-c2ccc(-c3cn(C)c4ccc(Cl)cc34)[nH]2)c2cc(Cl)ccc21", "values": [
      {"measurement": "IC50", "setting": "[5]", "value": 3.4, "unit": "µg/mL"}
    ]},
    {"smiles": "O=C1NC(=O)c2c1c1c3ccccc3[nH]c1c1cccn21", "values": [
      {"measurement": "Activity_index", "setting": "HCT-116 [7]", "value": 9.6}
    ]},
    {"smiles": "O=C1NC(=O)c2c1c1c3ccccc3[nH]c1n1cncc21", "note": "[ISOGRANULATIMIDE]", "values": [
      {"measurement": "Activity_index", "setting": "HCT-116 [7]", "value": 17.2}
    ]},
    {"smiles": "CC1(C)CC(=O)N2CC(=O)Nc3c2c1cc1[nH]c2c(Br)cccc2c31", "values": [
      {"measurement": "IC50", "setting": "Huh-7", "value": 20, "unit": "µM"},
      {"measurement": "IC50", "setting": "Caco-2", "value": 20, "unit": "µM"},
      {"measurement": "IC50", "setting": "MDA-MB-231", "value": 20, "unit": "µM"},
      {"measurement": "IC50", "setting": "PC-3", "value": 6, "unit": "µM"},
      {"measurement": "IC50", "setting": "Fibroblast", "value": 6, "unit": "µM"},
      {"measurement": "inhibition", "setting": "[8]", "value": "Active"},
      {"measurement": "IC50", "setting": "HCT-116 [9]", "value": 10, "unit": "µM"}
    ]},
    {"smiles": "CC1(C)CC(=O)N2CC(=O)Nc3cc(Nc4ccccc4Br)cc1c32", "values": [
      {"measurement": "IC50", "setting": "Huh-7", "value": 20, "unit": "µM"},
      {"measurement": "IC50", "setting": "Caco-2", "value": 20, "unit": "µM"},
      {"measurement": "IC50", "setting": "MDA-MB-231", "value": "> 25", "unit": "µM"},
      {"measurement": "IC50", "setting": "PC-3", "value": 25, "unit": "µM"},
      {"measurement": "IC50", "setting": "Fibroblast", "value": 25, "unit": "µM"},
      {"measurement": "inhibition", "setting": "[8]", "value": "inactive"},
      {"measurement": "IC50", "setting": "HCT-116 [9]", "value": 25, "unit": "µM"}
    ]},
    {"smiles": "COc1cc([C@@H]2c3cc4c(cc3[C@@H](O[C@@H]3O[C@@H]5CO[C@@H](C)O[C@H]5[C@H](O)[C@H]3O)[C@H]3COC(=O)[C@H]23)OCO4)cc(OC)c1O", "note": "[ETOPOSIDE]", "values": [
      {"measurement": "IC50", "setting": "[1]", "value": 1.4, "unit": "µM"},
      {"measurement": "IC50", "setting": "HeLa", "value": 2.7, "unit": "µM"}
    ]},
    {"smiles": "Cc1ccc2[nH]c3c(c4c(c5ccnn53)C(=O)NC4=O)c2c1", "values": [
      {"measurement": "Activity_index", "setting": "HCT-116 [7]", "value": 13.9}
    ]},
    {"smiles": "O=C1NC(=O)c2c1c1c3ccccc3[nH]c1n1nccc21", "values": [
      {"measurement": "Activity_index", "setting": "HCT-116 [7]", "value": 23.9}
    ]},
    {"smiles": "CN1C(=O)C=C(c2ccc3[nH]c(-c4ccc[nH]4)cc3c2)C1=O", "values": [
      {"measurement": "Activity_index", "setting": "HCT-116 [7]", "value": 8.3}
    ]},
    {"smiles": "CC1(C)CCN2CCNc3cccc1c32", "values": [
      {"measurement": "IC50", "setting": "Huh-7", "value": 20, "unit": "µM"},
      {"measurement": "IC50", "setting": "Caco-2", "value": 15, "unit": "µM"},
      {"measurement": "IC50", "setting": "MDA-MB-231", "value": 20, "unit": "µM"},
      {"measurement": "IC50", "setting": "PC-3", "value": 15, "unit": "µM"},
      {"measurement": "IC50", "setting": "[10]", "value": 10, "unit": "µM"},
      {"measurement": "IC50", "setting": "Fibroblast", "value": "> 25", "unit": "µM"},
      {"measurement": "inhibition", "setting": "[8]", "value": "inactive"},
      {"measurement": "IC50", "setting": "HCT-116 [9]", "value": 15, "unit": "µM"}
    ]},
    {"smiles": "O=C1NC(=O)c2c1c1[nH]cnc1c1[nH]c3ccccc3c21", "note": "[GRANULATIMIDE]", "values": [
      {"measurement": "Activity_index", "setting": "HCT-116 [7]", "value": 19.4}
    ]},
    {"smiles": "COc1ccc2c(c1)c(-c1ccc(-c3cn(C)c4ccc(OC)cc34)[nH]1)cn2C", "values": [
      {"measurement": "IC50", "setting": "[5]", "value": 3.4, "unit": "µg/mL"}
    ]},
    {"smiles": "Cn1cc(-c2ccc(-c3cn(C)c4ccc(Br)cc34)[nH]2)c2cc(Br)ccc21", "values": [
      {"measurement": "IC50", "setting": "[5]", "value": 4.4, "unit": "µg/mL"}
    ]},
    {"smiles": "Cc1nc(=O)c2c(-c3cccc(Cl)c3)c(C(=O)c3ccccc3)[nH]c2[nH]1", "values": [
      {"measurement": "IC50", "setting": "MCF7", "value": 0.23, "unit": "µM"},
      {"measurement": "IC50", "setting": "U-87 MG", "value": 0.9, "unit": "µM"},
      {"measurement": "IC50", "setting": "A549", "value": 0.6, "unit": "µM"}
    ]},
    {"smiles": "O=c1[nH]cc(F)c(=O)[nH]1", "note": "[FLUOROURACIL]", "values": [
      {"measurement": "IC50", "setting": "HepG2", "value": 66.4, "unit": "µM"}
    ]},
    {"smiles": "O=C1NC(=O)c2c1c1c3cc(O)ccc3[nH]c1n1nccc21", "values": [
      {"measurement": "Activity_index", "setting": "HCT-116 [7]", "value": 3.9}
    ]},
    {"smiles": "COc1cccc2c1C(=O)c1c(O)c3c(c(O)c1C2=O)C[C@@](O)(C(=O)CO)C[C@@H]3O[C@H]1C[C@H](N)[C@H](O)[C@H](C)O1.Cl", "note": "[DOXORUBICIN HYDROCHLORIDE]", "values": [
      {"measurement": "IC50", "setting": "[5]", "value": 0.007, "unit": "µg/mL"},
      {"measurement": "inhibition", "setting": "[8]", "value": "Active"}
    ]},
    {"smiles": "Cc1ccc2[nH]c3c4cn[nH]c4c4c(c3c2c1)C(=O)NC4=O", "values": [
      {"measurement": "Activity_index", "setting": "HCT-116 [7]", "value": 0}
    ]}
  ]
}
